PMC7317746 (Environmental and Molecular Mutagenesis, 2020)

Experiments:
[1] = test system: peripheral blood cells; assay: Comet assay, peripheral blood cells; assay type: in vivo, rat
[2] = test system: liver cells; assay: Comet assay, liver cells; assay type: in vivo, rat
[3] = 1-Month Study, 200 mg/kg/day Days 28-29, Day 29, positive control
[4] = 3-Day Study, 200 mg/kg/day Days 2-3, Day 3, positive control

With `CCOS(C)(=O)=O` [EMS, ethyl methanesulfonate] the “Blood % tail intensity mean ± SD” value [1, 3] was 26.41 ± 4.85 %, the “Blood % tail intensity mean ± SD” value [1, 4] was 24.56 ± 1.94 % and the “Liver % tail intensity mean ± SD” value [2, 3] was 30.79 ± 10.66 %. For the same compound, the “Liver % tail intensity mean ± SD” value [2, 4] was 28.07 ± 1.64 %.
